Measurements as given in patent EP3074389B1, “QUINOLINE DERIVATIVES AS BROMODOMAIN INHIBITORS” (Gilead Sciences, Inc., priority 2013, dated 2015).

What was measured:
[1] = molecular target: BRD4 domain 2 (Homo sapiens, UniProt O60885); assay: Kd determination of inhibitors binding to BRD4 domain 2 (Epic label-free platform); conditions: direct binding to immobilized BRD4 domain 2; tripling dilution series from 20µM; about 1hr equilibrium; rounded to whole number
Method: (§1) Kd Determination of Inhibitors Binding to BRD4 Domain 1 and Domain 2
(§2) The binding of small molecule inhibitors to either BRD4 domain 1 or domain 2 were determined using the Epic, high-throughput, label-free platform (Corning, Lowell, MA). The Epic instrument incorporates an evanescent waveguide sensor within each well of its proprietary 384-well microplates. Direct binding of inhibitors to BRD4 immobilized onto the microplate well surface can be detected by exposing the waveguide to a broadband light source. The resulting resonant wavelength shift (measured in picometers (pm)) is proportional to the mass bound to the surface. Epic biochemical plates (Corning, Lowell, MA) were activated by adding 15 µL/well of 200 mM EDC and 50 mM Sulfo-NHS (Pierce Thermo Scientific, Rockford, IL) and incubated for 60 minutes at room temperature. Plates were washed three times with MilliQ water and dried by centrifugation (1 minute at 400 rpm). BRD4 immobilization was accomplished by resuspending the protein at a concentration of 150 µg/mL in 20 mM HEPES (pH 7) and adding 10 µL/well. […] Compound/inhibitor binding was determined by calculating difference between the baseline (first read) and second read. The resulting binding response was fitted to a single site binding isotherm in order to determine an equilibrium dissociation constant (Kd).

[2] = molecular target: BRD4 domain 1 (Homo sapiens, UniProt O60885); assay: Kd determination of inhibitors binding to BRD4 domain 1 (Epic label-free platform); conditions: direct binding to immobilized BRD4 domain 1; tripling dilution series from 20µM; about 1hr equilibrium; rounded to whole number; read-out: Epic Kd BRD41
Method: as §1, §2

Row | Kd [1] | Kd [2] | SMILES
1 | 0.656 µM | 0.881 µM | Cc1noc(C)c1-c1cc(S(=O)(=O)NC2CCCC2)c2cc(NCCN3CCCC3)c(=O)[nH]c2c1 [Compound 89, N-cyclopentyl-7-(3,5-dimethylisoxazol-4-yl)-2-oxo-3-((2-(pyrrolidin-1-yl)ethyl)amino)-1,2-dihydroquinoline-5-sulfonamide]
2 | 17.3 µM | 10.4 µM | Cc1noc(C)c1-c1cc(S(=O)(=O)N[C@H]2CC[C@H](O)CC2)c2cccnc2c1 [Compound 21, 7-(3,5-dimethylisoxazol-4-yl)-N-((1r,4r)-4-hydroxycyclohexyl)qu inoline-5-sulfonamide]
3 | 20 µM | > 20 µM | Cc1noc(C)c1-c1cc(S(=O)(=O)NCCc2ccccc2)c2ccc(=O)[nH]c2c1 [Compound 48, 7-(3,5-dimethylisoxazol-4-yl)-2-oxo-N-phenethyl-1,2-dihydroquinoline-5-sulfonamide]
4 | 7.72 µM | 16.6 µM | Cc1noc(C)c1-c1cc(S(=O)(=O)N[C@H]2CC[C@@H](O)C2)c2cccnc2c1 [Compound 19, 7-(3,5-dimethylisoxazol-4-yl)-N-((1S,3R)-3-hydroxycyclopentyl)q uinoline-5-sulfonamide]
5 | 0.569 µM | 0.743 µM | Cc1noc(C)c1-c1cc(S(=O)(=O)NC2CCCC2)c2cc(NCCCN)c(=O)[nH]c2c1 [Compound 94, 3-((3-aminopropyl)amino)-N-cyclopentyl-7-(3,5-dimethylisoxazol-4-yl)-2-oxo-1,2-dihydroquinoline-5-sulfonamide]
6 | 0.561 µM | 0.76 µM | Cc1noc(C)c1-c1cc(S(=O)(=O)NC2CCCC2)c2cc(-n3cccn3)c(=O)[nH]c2c1 [Compound 33, N-cyclopentyl-7-(3,5-dimethylisoxazol-4-yl)-2-oxo-3-(1H-pyrazol-1-yl)-1,2-dihydroquinoline-5-sulfonamide]
7 | 1.19 µM | 7.27 µM | Cc1noc(C)c1-c1cc(S(=O)(=O)NC2CCCC2)c2cc(C(N)=O)c(=O)[nH]c2c1 [Compound 69, 5-(N-cyclopentylsulfamoyl) -7-(3,5-dimethylisoxazol-4-yl)-2-oxo-1,2-dihydroquinoline-3-carboxamide]
8 | 1.9 µM | 2.23 µM | Cc1noc(C)c1-c1cc(S(=O)(=O)NC2CCCC2)c2cc(N3CCCCC3)c(=O)[nH]c2c1 [Compound 60, N-cyclopentyl-7-(3,5-dimethylisoxazol-4-yl)-2-oxo-3-(piperidin-1-yl)-1,2-dihydroquinoline-5-sulfonamide]
9 | 2.68 µM | 3.19 µM | Cc1noc(C)c1-c1cc(S(=O)(=O)NC2CCC2)c2cccnc2c1 [Compound 10, N-cyclobutyl-7-(3,5-dimethylisoxazol-4-yl)quinoline-5-sulfonamide]
10 | 2.27 µM | 3.16 µM | Cc1noc(C)c1-c1cc(S(=O)(=O)N[C@@H]2CCC[C@H]2C(=O)N2CCNCC2)c2cccnc2c1 [Compound 47, 7-(3,5-dimethylisoxazol-4-yl)-N-((1R,2R)-2-(piperazine-1-carbonyl)cyclopentyl) quinoline-5-sulfonamide]
11 | 2.11 µM | 3.55 µM | Cc1noc(C)c1-c1cc(S(=O)(=O)NC2(C)CCCC2)c2cccnc2c1 [Compound 24, 7-(3,5-dimethylisoxazol-4-yl)-N-(1-methylcyclopentyl)qui noline-5-sulfonamide]

The remaining lines, values behind:

Row | SMILES | Kd [1] | Kd [2]
12 | COC[C@H]1CCC[C@H]1NS(=O)(=O)c1cc(-c2c(C)noc2C)cc2ncccc12 [Compound 63, 7-(3,5-dimethylisoxazol-4-yl)-N-((1R,2S)-2-(methoxymethyl)cyclopentyl)quinoline-5-sulfonamide] | 9.56 µM | 14.6 µM
13 | Cc1noc(C)c1-c1cc(S(=O)(=O)N[C@@H]2CCC[C@H]2C(=O)N2CCN(C)CC2)c2cccnc2c1 [Compound 71, 7-(3,5-dimethylisoxazol-4-yl)-N-((1R,2R)-2-(4-methylpiperazine-1-carbonyl)cyclopentyl) quinoline-5-sulfonamide] | 4.15 µM | 4.89 µM
14 | CC(=O)NCCNC(=O)[C@@H]1CCC[C@H]1NS(=O)(=O)c1cc(-c2c(C)noc2C)cc2ncccc12 [Compound 73, (1R,2R)-N-(2-acetamidoethyl)-2-(7-(3,5-dimethylisoxazol-4-yl)quinoline-5-sulfonamido)cyclopen tanecarboxamide] | 16.7 µM | > 20 µM
15 | Cc1noc(C)c1-c1cc(S(=O)(=O)NC2CCCC2)c2cc(NCC(C)(C)N)c(=O)[nH]c2c1 [Compound 99, 3-((2-amino-2-methylpropyl)amino)-N-cyclopentyl-7-(3,5-dimethylisoxazol-4-yl)-2-oxo-1,2-dihydroquinoline-5-sulfonamide] | 0.632 µM | 0.671 µM
16 | Cc1noc(C)c1-c1cc(S(=O)(=O)N[C@H]2C[C@@H]3CC[C@H]2C3)c2cccnc2c1 [Compound 38, N-((1S,2S,4R)-bicyclo[2.2.1]heptan-2-yl)-7-(3,5-dimethylisoxazol-4-yl)quinoline-5-sulfonamide] | 3.49 µM | 3.14 µM
17 | Cc1noc(C)c1-c1cc(S(=O)(=O)NC2CCCC2)c2ccc(C(F)F)nc2c1 [Compound 2, N-cyclopentyl-2-(difluoromethyl)-7 - (3,5-dimethylisoxazol-4-yl)quinoline-5-sulfonamide] | 1.32 µM | 3.38 µM
18 | Cc1noc(C)c1-c1cc(S(=O)(=O)NC2CCCC2)c2cc(NC(C)C)c(=O)[nH]c2c1 [Compound 77, N-cyclopentyl-7-(3,5-dimethylisoxazol-4-yl)-3-(isopropylamino)-2-oxo-1,2-dihydroquinoline-5-sulfonamide] | 0.61 µM | 0.896 µM
19 | Cc1noc(C)c1-c1cc(S(=O)(=O)N(C)C2CC2)c2cccnc2c1 [Compound 9, N-cyclopropyl-7-(3,5-dimethylisoxazol-4-yl)-N-methylquinoline-5-sulfonamide] | 12.5 µM | > 20 µM
20 | Cc1noc(C)c1-c1cc(S(=O)(=O)N[C@H]2C[C@@H](NC(=O)OC(C)(C)C)C2)c2cccnc2c1 [Compound 25, tert-butyl ((1s,3s)-3-(7-(3,5-dimethylisoxazol-4-yl)quinoline-5-sulfonamido)cyclobutyl)carbamate] | > 20 µM | 16.2 µM
21 | Cc1noc(C)c1-c1cc(S(=O)(=O)NC2CCCC2)c2cc(NCCN(C)C)c(=O)[nH]c2c1 [Compound 88, N-cyclopentyl-3-((2-(dimethylamino)ethyl)amino)-7-(3,5-dimethylisoxazol-4-yl)-2-oxo-1,2-dihydroquinoline-5-sulfonamide] | 0.943 µM | 1.06 µM
22 | Cc1noc(C)c1-c1cc(S(=O)(=O)NC2CCCC2)c2cccnc2c1Cl [Compound 18, 8-chloro-N-cyclopentyl-7-(3,5-dimethylisoxazol-4-yl)quinoline-5-sulfonamide] | 4.26 µM | 9.15 µM
23 | CC(=O)N[C@H]1CCC[C@H]1NS(=O)(=O)c1cc(-c2c(C)noc2C)cc2ncccc12 [Compound 51, N-((1S,2R)-2-(7-(3,5-dimethylisoxazol-4-yl)quinoline-5-sulfonamido)cyclopentyl)acetamide] | 6.45 µM | 7.62 µM
24 | Cc1noc(C)c1-c1cc(S(=O)(=O)N[C@H]2CCC[C@H]2O)c2cccnc2c1 [Compound 27, 7-(3,5-dimethylisoxazol-4-yl)-N-((1S,2R)-2-hydroxycyclopentyl)q uinoline-5-sulfonamide] | 6.8 µM | 12.5 µM
